Laboratory results: article PMC3481155, “AhR activation underlies the CYP1A autoinduction by A-998679 in rats” (Frontiers in Genetics, 2012)

Legend:
rat Cyp 2A1 = molecular target: T1, rat Cyp 2A1 (Rattus norvegicus, UniProt P11711); experiment: Recombinant rat Cyp phenotype profiling, 2A1; type: in vitro ADME; details: 60 min
T1 construct: purchased BD Gentest; host or cells: baculovirus infected insect cells
Method: (§1) Identification of the drug metabolizing enzymes (DMEs) of A-998679 was studied in cDNA expressed recombinant enzymes prepared from baculovirus infected insect cells over-expressing rat Cyp isoforms (BD Gentest, Woburn, MA) as listed in Table 2. Incubations were conducted in duplicate using Supersomes. The incubation mixture contained 100 pmol/ml of enzymes, except for Cyp1a1 (200 pmol/ml), 0.1 or 0.21 μM of [^3H]A-998679 in 100 mM phosphate buffer (pH 7.4). Reactions were initiated with the addition of NADPH at a final concentration of 1 mM and incubated at 37°C for 60 min. At the end of the incubation period, the incubations were terminated by the addition of acetonitrile/ethanol (50/50, v/v) solution. Insect control samples lacking expressed enzyme were used as negative control. The degree of metabolism of A-998679 was assessed by percent of parent remaining using the radio-HPLC method described below.
(§2) Radiolabeled components from the above assays were profiled following separation by HPLC with on line radioflow detector. The system consisted of an Agilent 1100 Series quaternary pump and autosampler connected to a Packard 500TR flow scintillation detector. The data were processed using the Radiomatic™ Flo-one® software v3.65. The scintillant (Perkin Elmer FLO-SCINT™ III) flow was maintained at 3 ml/min. […]

rat Cyp2b1 = molecular target: T2, rat Cyp2b1 (Rattus norvegicus, UniProt P00176); experiment: Recombinant rat Cyp phenotype profiling, 2B1; type: in vitro ADME; details: 60 min
T2 construct: purchased BD Gentest; host or cells: baculovirus infected insect cells
T2 sequence (P00176 whole entry): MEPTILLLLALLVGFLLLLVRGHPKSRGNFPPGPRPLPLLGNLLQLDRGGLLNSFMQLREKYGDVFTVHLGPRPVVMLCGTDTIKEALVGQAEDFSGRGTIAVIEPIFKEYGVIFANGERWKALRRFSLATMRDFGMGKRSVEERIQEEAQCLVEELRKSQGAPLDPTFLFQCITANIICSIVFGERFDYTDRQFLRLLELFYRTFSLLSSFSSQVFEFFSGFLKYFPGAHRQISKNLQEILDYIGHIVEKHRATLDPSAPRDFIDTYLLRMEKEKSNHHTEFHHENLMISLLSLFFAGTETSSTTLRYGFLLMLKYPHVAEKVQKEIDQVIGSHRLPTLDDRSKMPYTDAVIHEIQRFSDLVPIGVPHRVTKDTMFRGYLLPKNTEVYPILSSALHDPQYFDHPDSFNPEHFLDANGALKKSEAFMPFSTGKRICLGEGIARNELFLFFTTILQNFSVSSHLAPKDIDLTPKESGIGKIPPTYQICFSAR
Method: as §1, §2

rat Cyp 3A1 = molecular target: T3, rat Cyp 3A1 (Rattus norvegicus, UniProt P04800); experiment: Recombinant rat Cyp phenotype profiling, 3A1; type: in vitro ADME; details: 60 min
T3 construct: purchased BD Gentest; host or cells: baculovirus infected insect cells
T3 sequence (P04800 whole entry): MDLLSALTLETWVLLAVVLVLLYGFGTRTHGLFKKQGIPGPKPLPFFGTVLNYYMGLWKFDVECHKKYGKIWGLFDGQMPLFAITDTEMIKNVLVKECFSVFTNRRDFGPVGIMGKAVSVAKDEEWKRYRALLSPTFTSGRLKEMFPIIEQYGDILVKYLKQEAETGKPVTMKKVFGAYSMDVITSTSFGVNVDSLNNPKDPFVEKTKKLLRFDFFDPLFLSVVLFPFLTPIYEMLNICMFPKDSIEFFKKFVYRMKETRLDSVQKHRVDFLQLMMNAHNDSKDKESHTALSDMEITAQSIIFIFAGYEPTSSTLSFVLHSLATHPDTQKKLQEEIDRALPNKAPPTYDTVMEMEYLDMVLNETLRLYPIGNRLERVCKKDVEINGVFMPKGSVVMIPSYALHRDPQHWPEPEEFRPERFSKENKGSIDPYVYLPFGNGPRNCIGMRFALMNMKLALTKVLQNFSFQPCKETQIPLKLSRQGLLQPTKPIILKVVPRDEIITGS
Method: as §1, §2

Mrp2 = Mrp2 expression in rat small intestine; type: in vivo; details: treated rats; data not shown
Method: All animal experiments were conducted in accordance with the Guiding Principles in the Use of Animals in Toxicology (http://www.toxicology.org/ai/air/air6.asp) and were approved by Abbott's Institutional Animal Care and Use Committee (IACUC). Male Sprague-Dawley rats [Crl:CD®(SD)IGS BR], weighing ~250 g at study initiation were obtained from Charles River Laboratories, Inc. (Wilmington, MA). Rats were housed singly in ventilated, stainless steel, wire-bottom hanging cages and fed non-certified Rodent Chow (Harlan Labs, Madison, WI), and water ad libitum and acclimated for at least 5 days after arrival. […] Serum clinical chemistry parameters were quantified using an Aeroset Clinical Chemistry Analyzer (Abbott Laboratories, Abbott Park, IL) and included alanine amino transferase (ALT), aspartate amino transferase (AST), gamma glutamyltransferase (GGT), and alkaline phosphatase (ALP) activities.
Frozen liver or jejunum were immediately added to 4 ml of TRIzol reagent (Invitrogen Life Technologies) and homogenized using a Polytron 300D homogenizer (Brinkman Instruments, Westbury, NY). […] Nucleic acid concentration was determined by OD 260 nm (Smart-Spec, Bio-Rad Laboratories, Hercules, CA), and RNA integrity was evaluated using an Agilent 2100 bioanalyzer (Agilent Technologies, Foster City, CA). […]

T1 sequence (P11711 whole entry): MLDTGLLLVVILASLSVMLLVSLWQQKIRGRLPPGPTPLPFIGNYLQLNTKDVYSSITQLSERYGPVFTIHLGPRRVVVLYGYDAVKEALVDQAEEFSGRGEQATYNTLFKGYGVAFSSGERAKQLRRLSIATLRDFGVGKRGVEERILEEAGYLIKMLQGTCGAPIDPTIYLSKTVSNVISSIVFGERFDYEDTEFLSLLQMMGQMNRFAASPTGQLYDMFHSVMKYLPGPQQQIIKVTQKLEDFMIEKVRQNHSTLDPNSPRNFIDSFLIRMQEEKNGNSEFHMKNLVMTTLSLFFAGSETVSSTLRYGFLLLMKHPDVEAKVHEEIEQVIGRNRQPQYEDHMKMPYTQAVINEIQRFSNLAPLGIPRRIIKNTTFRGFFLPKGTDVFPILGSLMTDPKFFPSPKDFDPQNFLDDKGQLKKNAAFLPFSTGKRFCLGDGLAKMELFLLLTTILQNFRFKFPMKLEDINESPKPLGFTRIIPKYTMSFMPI

N#Cc1cccc(-c2noc(-c3cccnc3)n2)c1 [A-998679, 3-(5-pyridin-3-yl-1,2,4-oxadiazol-3-yl) benzonitrile]
% parent remaining (rat Cyp 2A1; recombinant rat Cyp 2A1, 0.10 μM): 100%
% parent remaining (rat Cyp 2A1; recombinant rat Cyp 2A1, 0.21 μM): 100%
% parent remaining (rat Cyp2b1; recombinant rat Cyp 2B1, 0.10 μM): 87.0%
% parent remaining (rat Cyp2b1; recombinant rat Cyp 2B1, 0.21 μM): 34.5%
% parent remaining (rat Cyp 3A1; recombinant rat Cyp 3A1, 0.10 μM): 93.9%
% parent remaining (rat Cyp 3A1; recombinant rat Cyp 3A1, 0.21 μM): 90.3%
expression of Mrp2 in small intestine (Mrp2): increased expression
